In assay [1] the test system is male rats, of the Sprague-Dawley strain. Kind of assay: Anti-inflammatory activity in the egg white test. Format: in vivo. As to conditions: orally, 0.1 ml of egg white in the rear paw, measured 3 and 4 hours later. The procedure: For each compound 16 male rats, of the Sprague-Dawley strain and weighing 300 g, were used. The animals were divided in four groups each comprising four rats. The first group served as a control, whereas the other three gropus were orally administered, with a 30 minute interval, with two doses of 50,75 and 100 mg/kg of the test compound. The last administration was immediately followed by the inoculation of 0.1 ml of egg white in the rear paw of all the animals, including the controls. The measurements of the diameters of the articulations were effected 3 and 4 hours later.

Assay [2] relates to rats of male sex, of the Sprague-Dawley strain. As to the kind of experiment: Anti-inflammatory activity in the kaolin test. Format: in vivo. As to conditions: 10% suspension of kaolin injected, diameter of the tibio-tarsal articulation. The procedure: a) Anti-inflammatory activity in the kaolin test. For each compound 16 rats of male sex, of the Sprague-Dawley strain and of 200-250 g of body weight, were used. The rats were divided into four groups each comprising four rats. All.-the animals were injected with a 10% suspension of kaolin. The first group was used as the control, whereas the other three groups were administered with doses respectively of 50,75 and 100 mg/kg. The measurements of the diamzrers of the articulation were effected one hour after the kaolin injection and then every 24 hours.
The inoculation of kaolin caused an increase of the tibio-tarsal articulation which has been partially limited by the treatment with the test compound.

In patent publication EP0052910A1, “Derivative of N-acetilcysteine having therapeutical activity, process for its preparation and related pharmaceutical compositions” (Real S.a.s. di Alberto Reiner & C., priority 1980, dated 1982) one finds Anti-inflammatory activity % data, which are given here for one substance.

For the substance “p-isobutylphenylpropionoylthio-N-acetylcysteine”, the Anti-inflammatory activity % in assay [1] (two doses of 75 mg/kg with a 30 minute interval) worked out at 12%; in assay [1] (two doses of 100 mg/kg with a 30 minute interval), 20%; in assay [2] (dose 75 mg/kg) it was 12%; in assay [2] (dose 100 mg/kg), 26%.
